In paper PMC7265429, “Characterization of a new small-molecule inhibitor of HDAC6 in glioblastoma” (Cell Death & Disease, 2020):

Tested on: GNS166 cells
Assay: Microarray whole-transcriptome gene expression analysis
Assay type: cell-based, human
Protocol: Whole-transcriptome analysis was performed from 300 ng of RNA using HuGene-2_0-st-v1 expression array (Affymetrix), which covers 48,226 transcripts. Raw data were first checked for quality purposes through the Affymetrix® Expression Console™ Software v1.4.1 and TAC software v4.0. Then, data were normalized using the Robust Multi-array Average (RMA) and analyzed by Limma tool. Probesets with FDR-corrected p-values smaller than 0.05 were selected. Functional enrichment on Gene Ontology (GO) biological processes was performed on a smaller subset of the differentially expressed genes (corrected p-value < 0.001) by means of Broad Institute GSEA. […] The data that support this study have been deposited in NCBI´s Gene Expression Omnibus and are accessible through GEO series accession number GSE143887.

[1] = sheet DMSO-SAHA_DOWN, microarray

O=C(CCCCCCC(=O)Nc1ccccc1)NO [SAHA, Suberoylanilide hydroxamic acid]
logFC TTC7B (transcript TC1400009967.hg.1) [1]: -1.063
logFC TTC28 (transcript TC2200008356.hg.1) [1]: -1.091
logFC TXNDC15 (transcript TC0500008705.hg.1) [1]: -1.511
logFC USE1 (transcript TC1900007313.hg.1) [1]: -1.0842
logFC VCAN (transcript TC0500007972.hg.1) [1]: -1.305
logFC YAP1 (transcript TC1100008904.hg.1) [1]: -1.463
logFC ZDHHC4 (transcript TC0700006649.hg.1) [1]: -0.9579
logFC ZNF43 (transcript TC1900010163.hg.1) [1]: -0.8461
logFC ZNF107 (transcript TC0700013370.hg.1) [1]: -1.056
logFC ZNF805 (transcript TC1900008988.hg.1) [1]: -0.8747
logFC geneSymbol NA (transcript 23064083) [1]: -1.061
logFC geneSymbol NA (transcript 23066345) [1]: -1.581
logFC geneSymbol NA (transcript 23066351) [1]: -1.258
logFC geneSymbol NA (transcript 23066370) [1]: -1.256
logFC geneSymbol NA (transcript 23066378) [1]: -1.258
logFC geneSymbol NA (transcript 23075414) [1]: -1.568
logFC geneSymbol NA (transcript 23075613) [1]: -0.9478
logFC geneSymbol NA (transcript 23075631) [1]: -0.8653
logFC geneSymbol NA (transcript 23075715) [1]: -0.9535
logFC geneSymbol NA (transcript 23075786) [1]: -0.9478
logFC geneSymbol NA (transcript 23075802) [1]: -0.9222
logFC geneSymbol NA (transcript 23075888) [1]: -0.8842
logFC geneSymbol NA (transcript 23075961) [1]: -0.9103
logFC geneSymbol NA (transcript 23076100) [1]: -0.9321
logFC geneSymbol NA (transcript 23076182) [1]: -0.9773
logFC geneSymbol NA (transcript 23076263) [1]: -0.9293
logFC geneSymbol NA (transcript 23076348) [1]: -0.9199
logFC geneSymbol NA (transcript 23076424) [1]: -0.8654
logFC geneSymbol NA (transcript 23076493) [1]: -0.9827
logFC geneSymbol NA (transcript HTA2-pos-3670232_st) [1]: -0.8727
logFC geneSymbol NA (transcript HTA2-pos-3670240_st) [1]: -1.133
logFC geneSymbol NA (transcript HTA2-pos-PSR05023592.hg.1) [1]: -0.8946
logFC geneSymbol NA (transcript HTA2-pos-PSR05035203.hg.1) [1]: -1.027
logFC geneSymbol NA (transcript HTA2-pos-PSR17008061.hg.1) [1]: -0.9289
logFC geneSymbol NA (transcript HTA2-pos-PSR17008062.hg.1) [1]: -0.8972
logFC geneSymbol NA (transcript HTA2-pos-PSR17008080.hg.1) [1]: -0.8914
logFC geneSymbol NA (transcript HTA2-pos-PSR17008100.hg.1) [1]: -0.9888
logFC geneSymbol NA (transcript HTA2-pos-PSR17013956.hg.1) [1]: -1.322
logFC geneSymbol NA (transcript HTA2-pos-PSR19006615.hg.1) [1]: -0.8048
logFC transcript 23071521 (geneSymbol NA) (transcript 23071521, DMSO vs 5 µM SAHA, upregulated genes): 0.9492
logFC transcript 23074028 (geneSymbol NA) (transcript 23074028, DMSO vs 5 µM SAHA, upregulated genes): 1.15
logFC REPS2 (transcript TC0X00006704.hg.1, DMSO vs 5 µM SAHA, upregulated genes): 2.016
logFC FAM3C2 (transcript TC0X00006789.hg.1, DMSO vs 5 µM SAHA, upregulated genes): 1.058
logFC TMEM35 (transcript TC0X00007935.hg.1, DMSO vs 5 µM SAHA, upregulated genes): 1.065
logFC SMIM10 (transcript TC0X00008492.hg.1, DMSO vs 5 µM SAHA, upregulated genes): 1.0804
logFC CDR1 (transcript TC0X00008596.hg.1, DMSO vs 5 µM SAHA, upregulated genes): 2.1035
logFC GEMIN8 (transcript TC0X00009107.hg.1, DMSO vs 5 µM SAHA, upregulated genes): 1.085
logFC TAB3 (transcript TC0X00009339.hg.1, DMSO vs 5 µM SAHA, upregulated genes): 0.8188
logFC TMEM255A (transcript TC0X00010670.hg.1, DMSO vs 5 µM SAHA, upregulated genes): 1.002
logFC DCAF6 (transcript TC0100010518.hg.1, DMSO vs 5 µM SAHA, upregulated genes): 0.8028
logFC LAMC1 (transcript TC0100010863.hg.1, DMSO vs 5 µM SAHA, upregulated genes): 1.035
logFC PPP2R5A (transcript TC0100011520.hg.1, DMSO vs 5 µM SAHA, upregulated genes): 0.853
logFC VASH2 (transcript TC0100011552.hg.1, DMSO vs 5 µM SAHA, upregulated genes): 1.211
logFC FRRS1 (transcript TC0100015049.hg.1, DMSO vs 5 µM SAHA, upregulated genes): 1.197
logFC PLD5 (transcript TC0100017957.hg.1, DMSO vs 5 µM SAHA, upregulated genes): 1.018
logFC FPGT-TNNI3K (transcript TC0100018235.hg.1, DMSO vs 5 µM SAHA, upregulated genes): 1.058
logFC PPP1R21 (transcript TC0200007535.hg.1, DMSO vs 5 µM SAHA, upregulated genes): 1.2457
logFC ACVR2A (transcript TC0200009596.hg.1, DMSO vs 5 µM SAHA, upregulated genes): 1.001
logFC ACSL3 (transcript TC0200010907.hg.1, DMSO vs 5 µM SAHA, upregulated genes): 1.082
logFC PIGF (transcript TC0200012489.hg.1, DMSO vs 5 µM SAHA, upregulated genes): 1.027
logFC RND3 (transcript TC0200014597.hg.1, DMSO vs 5 µM SAHA, upregulated genes): 0.9455
logFC ACVR1C (transcript TC0200014694.hg.1, DMSO vs 5 µM SAHA, upregulated genes): 1.493
logFC CMTM8 (transcript TC0300006961.hg.1, DMSO vs 5 µM SAHA, upregulated genes): 0.9182
logFC RNF13 (transcript TC0300009147.hg.1, DMSO vs 5 µM SAHA, upregulated genes): 1.125
logFC RAP2B (transcript TC0300009229.hg.1, DMSO vs 5 µM SAHA, upregulated genes): 0.867
logFC TIPARP (transcript TC0300009282.hg.1, DMSO vs 5 µM SAHA, upregulated genes): 0.8784
logFC PPM1L (transcript TC0300009353.hg.1, DMSO vs 5 µM SAHA, upregulated genes): 1.659
logFC POLR2H (transcript TC0300009706.hg.1, DMSO vs 5 µM SAHA, upregulated genes): 0.9753
logFC SLC9A9 (transcript TC0300012686.hg.1, DMSO vs 5 µM SAHA, upregulated genes): 2.129
logFC TNIK (transcript TC0300013108.hg.1, DMSO vs 5 µM SAHA, upregulated genes): 1.27
logFC EFHB (transcript TC0300013950.hg.1, DMSO vs 5 µM SAHA, upregulated genes): 1.411
logFC DGKG (transcript TC0300014083.hg.1, DMSO vs 5 µM SAHA, upregulated genes): 2.595
logFC BMP2K (transcript TC0400007938.hg.1, DMSO vs 5 µM SAHA, upregulated genes): 0.9344
logFC NPNT (transcript TC0400008331.hg.1, DMSO vs 5 µM SAHA, upregulated genes): 1.698
logFC HHIP (transcript TC0400008892.hg.1, DMSO vs 5 µM SAHA, upregulated genes): 1.6713
logFC KIAA0922 (transcript TC0400009038.hg.1, DMSO vs 5 µM SAHA, upregulated genes): 1.219
logFC ETFDH (transcript TC0400009132.hg.1, DMSO vs 5 µM SAHA, upregulated genes): 0.9226
logFC CLCN3 (transcript TC0400009284.hg.1, DMSO vs 5 µM SAHA, upregulated genes): 0.8527
logFC FAM175A (transcript TC0400011208.hg.1, DMSO vs 5 µM SAHA, upregulated genes): 1.331
logFC PAPSS1 (transcript TC0400011538.hg.1, DMSO vs 5 µM SAHA, upregulated genes): 0.9468
logFC ETNPPL (transcript TC0400011563.hg.1, DMSO vs 5 µM SAHA, upregulated genes): 1.856
logFC PDE5A (transcript TC0400011712.hg.1, DMSO vs 5 µM SAHA, upregulated genes): 1.355
logFC RAPGEF2 (transcript TC0400012856.hg.1, DMSO vs 5 µM SAHA, upregulated genes): 1.1527
logFC FAM105A (transcript TC0500006816.hg.1, DMSO vs 5 µM SAHA, upregulated genes): 1.369
logFC SLC36A1 (transcript TC0500009123.hg.1, DMSO vs 5 µM SAHA, upregulated genes): 0.9929
logFC ARL15 (transcript TC0500010731.hg.1, DMSO vs 5 µM SAHA, upregulated genes): 2.128
logFC GLRX (transcript TC0500011497.hg.1, DMSO vs 5 µM SAHA, upregulated genes): 0.987
logFC NME5 (transcript TC0500012160.hg.1, DMSO vs 5 µM SAHA, upregulated genes): 1.606
logFC PCDH1 (transcript TC0500012294.hg.1, DMSO vs 5 µM SAHA, upregulated genes): 1.432
